Read-outs that look alike come from different tables or passages of the source.

The test system of assay [1] is amphetamine-induced hyper-activity in rats. Description: amphetamine-induced hyperactivity in rats. Conditions: for Line Crossings (mean ± S.E.): amphetamine control 111.6 ± 6.4. Type of assay: in vivo, rat. Here is the method:
Male Long Evans rats (190-280 g) in each group of five were used. Amphetamine (1.0 mg/kg i.p.) was dissolved in saline, and test compounds were dissolved or suspended in 0.5% hydroxypropylmethylcellulose (HPMC) solution. All the test compounds were injected intraperitoneally in a volume of 0.1 ml/100 g, and control rats were treated with the respective vehicle. The plastic open-field box (40×40×40(H) cm) was used to measure the locomotor activity of rats. The locomotor activity was expressed as the number of line crossings marked on the floor of the test box at 20 cm square. Individual rats were placed in the test box just after the injection of amphetamine, and were allowed to habituate there for 10 min. The line crossings were counted over 15 min thereafter. The behavioural observation was conducted on two rats simultaneously using two test boxes. Test compounds were pretreated 30 min before the injection of amphetamine.

In a further assay the target is T1, human 5-HT7 receptors (Homo sapiens, UniProt P34969).
T1 construct: purchased Euroscreen
The assay can be described thus: 5-HT7 binding assay (3H-5CT). As to conditions: human 5-HT7 membrane, 3H-5CT 0.5 nM. Here is the method: The compounds of the present invention were screened for binding affinity using membranes containing stably expressed human M4 muscarinic receptors or human 5-HT7 receptors.
Total volume 200 μl/well. Membrane concentration—human 5-HT7 membrane (purchased from Euroscreen)—6 μg/ml; ^3H-5CT 0.5 nM; Sample conc. 10 nM-300 μM; 8OH-DPAT Displacement Curve—1 nM-3 μM. The plates are incubated at 20° C. for 120 minutes in the dark to avoid any photo degradation. Membranes are harvested by rapid filtration using a vacuum manifold under 700 mbar pressure. The plates are washed 3 times with 200 ul/well of ice-cold wash buffer. Plates are dried at 40° C. for 1 hour (Higher CPMs are obtained when the filters are dried) 100 μl scintillation fluid is added to each well and cpm determined using a Microbeta scintillation counter.

Assay [2] concerns the target T2, M4 muscarinic receptors (N1E-115 cells) (Mus musculus, UniProt P32211).
T2 construct: endogenous in cells; host or cells: mouse N1E-115 cells (homogenate)
T2 sequence (P32211 1-479): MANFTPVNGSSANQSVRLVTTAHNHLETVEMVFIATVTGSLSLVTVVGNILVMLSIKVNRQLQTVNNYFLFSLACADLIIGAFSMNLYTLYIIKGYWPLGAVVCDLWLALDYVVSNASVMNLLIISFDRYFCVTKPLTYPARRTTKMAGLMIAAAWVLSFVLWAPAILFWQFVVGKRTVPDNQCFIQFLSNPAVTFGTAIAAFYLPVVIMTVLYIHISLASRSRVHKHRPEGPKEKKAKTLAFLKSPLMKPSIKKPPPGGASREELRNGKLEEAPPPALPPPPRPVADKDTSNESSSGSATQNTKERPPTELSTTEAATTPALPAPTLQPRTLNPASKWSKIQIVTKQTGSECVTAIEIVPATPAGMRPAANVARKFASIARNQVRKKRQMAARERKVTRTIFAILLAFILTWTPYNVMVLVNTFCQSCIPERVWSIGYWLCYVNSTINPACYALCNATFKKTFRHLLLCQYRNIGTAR
The assay can be described thus: Homogenate assay for c-AMP production (PACAP-stimulated). Type of assay: biochemical. Conditions: N1E-115 homogenate; for reduction of c-AMP levels (agonist activity): PACAP 0.1 nM stimulation. Here is the method: N1E-115 cells were harvested by scraping and placed in Ribolyser tubes on dry ice. Ice cold buffer (0.5 ml) containing 50 mM Tris HCl, 0.4 mM EDTA and 0.4 mM EGTA (pH 7.4) was added to the tubes. The tubes were then placed in a Ribolyser and shaken at 4 g for 20 sec. The homogenate was then transferred to eppendorf tubes and was then centrifuged at 19,700 g for 30 min at 4° C. The pellet was resuspended in ice cold 50 mM Tris HCl (pH7.4) at a concentration of 50 mg ml^−1 wet weight of tissue. The homogenate was stored in aliquots at −70° C. Protein concentrations of the homogenates were determined using a Bio-Rad protein determination kit. The assay was carried out in a final assay volume of 120 μl containing 50 mM Tris HCl (pH7.4), 5 mM MgCl2 50 μM GTP, 200 μM ATP, 120 μM sucrose, 0.4 mM EDTA, 0.4 mM EGTA, 200 μM ascorbic acid, 20 μM papaverine, 200 μM rolipram, 10 μM vinpocetine, 10 mM phosphocreatinine, 0.4 mM DTT, 100 nM WAY 100635, 1 μM propranolol, 36 μg bacitracin, 4.8 U creatine phosphokinase, 3.6 KIU aprotinin. Homogenate (1 mgml^−1) was preincubated with the test compound in ice cold assay buffer for 10 min. PACAP (0.1 nM) was then added to the tubes. The tubes were then incubated at 30° C. for 20 min and then at 99° C. for 5 min. Levels of c-AMP in the tubes were measured using the Amersham Pharmacia Biotech Biotrak c-AMP enzymeimmunoassay kit.

The target of assay [3] is T3, human M4 muscarinic receptors (Homo sapiens, UniProt P08173).
T3 construct: purchased NEN
T3 sequence (P08173 1-479): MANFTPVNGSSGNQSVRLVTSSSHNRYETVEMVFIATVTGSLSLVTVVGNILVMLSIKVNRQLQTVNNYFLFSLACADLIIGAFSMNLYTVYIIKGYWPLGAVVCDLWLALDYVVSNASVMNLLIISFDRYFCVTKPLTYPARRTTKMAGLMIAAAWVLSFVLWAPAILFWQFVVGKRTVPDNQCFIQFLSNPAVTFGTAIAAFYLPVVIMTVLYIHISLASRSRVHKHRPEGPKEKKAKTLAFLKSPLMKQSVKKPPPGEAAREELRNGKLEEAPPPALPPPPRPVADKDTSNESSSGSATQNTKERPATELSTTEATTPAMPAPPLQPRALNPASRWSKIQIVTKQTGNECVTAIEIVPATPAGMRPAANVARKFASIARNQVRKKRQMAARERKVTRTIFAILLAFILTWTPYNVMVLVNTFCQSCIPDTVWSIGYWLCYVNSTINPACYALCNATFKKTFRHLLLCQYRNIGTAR
The assay can be described thus: M4 binding assay (3H-NMS). Conditions: human M4 membranes, 3H-NMS 0.25 nM.
Protocol: Total volume 200 μl/well. Membrane concentration—human M4 membranes (NEN)—8 μg/ml; ^3H-NMS 0.25 nM; Sample conc. 10 nM-300 μM; Atropine Displacement Curve—0.3 nM-1 μM.
The plates are incubated at 20° C. for 60 minutes in the dark to avoid any photo degradation. Membranes are harvested by rapid filtration using a vacuum manifold under 700 mbar pressure. The plates are washed 3 times with 200 ul per well of ice-cold wash buffer. Plates are dried at 40° C. for 1 hour, 100 μl scintillation fluid is added to each well and cpm determined using a Microbeta scintillation counter.

In a further assay the target is T4, human D2 membrane (Homo sapiens, UniProt P14416).
T4 construct: purchased Euroscreen
The assay can be described thus: D2 binding assay (3H-spiperone). Conditions: 3H-spiperone 0.5 nM. Here is the method:
Total volume 200 μl/well. Membrane concentration—human D2 membrane (purchased from Euroscreen)—10 μg/ml; ^3H-spiperone 0.5 nM; Sample conc. 10 nM-300 μM; Haloperidol Displacement Curve—1 nM-10 μM. The plates are incubated at 25° C. for 60 minutes in the dark to avoid any photo degradation.
Membranes are harvested by rapid filtration using a vacuum manifold under 700 mbar pressure. The plates are washed 3 times with 200 ul/well of ice-cold wash buffer. Plates are dried at 40° C. for 1 hour (Higher CPMs are obtained when the filters are dried). 100 μl scintillation fluid is added to each well and cpm determined using a Microbeta scintillation counter.

Assay [4] relates to apomorphine-induced deficits in PPI in rats. Description: apomorphine-induced deficits in prepulse inhibition (PPI). It counts as in vivo, rat. As to conditions: s.c. 25 minutes prior to apomorphine 0.5 mg/kg s.c.; Wistar rats. From the text: Male Wistar rats (Japan SLC Inc., Shizuoka, Japan) were used. They were housed in a light, humidity and temperature controlled environment maintained on a 12-hour/12-hour light/dark schedule (light on at 7 am) with food and water provided ad libitum. Four startle chambers (SR-LAB, San Diego Instruments, San Diego, Calif.) were placed in a sound-attenuated room. Each chamber consisted of Plexiglas cylinder 8.8 cm in diameter resting on a 12.7×20.3 cm Plexiglas stand. Acoustic stimuli and background noise were presented via a Supertweeter mounted 24 cm above the Plexiglas cylinder. Startle magnitude was detected and recorded by a microcomputer and interface assembly (San Diego Instruments) as transduced cylinder movement via a piezoelectric device mounted below the Plexiglas stand.
One day before drug testing, all rats were exposed to a “matching” startle session. Data from this session were used to assign rats to balanced groups according to their startle responses. […] Each session was approximately 20 minutes and consisted of 5 minutes of 70-dB background followed by five trial types, PULSE ALONE trial: a 120-dB 50 ms noise burst, PREPULSE trials which consisted of 20 ms noise bursts 3, 5, 10 dB above 70-dB background noise followed 100 ms later by a 120-dB 40 ms noise burst, NOSTIM trial: 100 ms of response was recorded during periods where no stimulus was presented. […]

The test system of assay [5] is chronic PCP-treated rats. Conditions: cited from earlier work.
In assay [6] the test system is chronic PCP-treated rats. The assay can be described thus: LCGU (2-DG) in chronic PCP rat model.

T4 sequence (P14416 whole entry): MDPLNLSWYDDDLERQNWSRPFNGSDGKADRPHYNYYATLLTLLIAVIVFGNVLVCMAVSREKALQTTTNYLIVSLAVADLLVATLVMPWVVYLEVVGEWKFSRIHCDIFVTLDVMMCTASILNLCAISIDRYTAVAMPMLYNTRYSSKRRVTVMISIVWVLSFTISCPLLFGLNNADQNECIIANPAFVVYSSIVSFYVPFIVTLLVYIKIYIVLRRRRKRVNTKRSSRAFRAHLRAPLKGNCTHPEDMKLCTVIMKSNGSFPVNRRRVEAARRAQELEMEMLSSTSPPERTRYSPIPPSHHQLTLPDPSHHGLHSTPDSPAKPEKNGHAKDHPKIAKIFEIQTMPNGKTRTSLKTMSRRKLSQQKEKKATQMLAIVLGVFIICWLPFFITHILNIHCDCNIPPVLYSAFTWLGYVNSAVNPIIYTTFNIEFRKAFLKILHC
T1 sequence (P34969 whole entry): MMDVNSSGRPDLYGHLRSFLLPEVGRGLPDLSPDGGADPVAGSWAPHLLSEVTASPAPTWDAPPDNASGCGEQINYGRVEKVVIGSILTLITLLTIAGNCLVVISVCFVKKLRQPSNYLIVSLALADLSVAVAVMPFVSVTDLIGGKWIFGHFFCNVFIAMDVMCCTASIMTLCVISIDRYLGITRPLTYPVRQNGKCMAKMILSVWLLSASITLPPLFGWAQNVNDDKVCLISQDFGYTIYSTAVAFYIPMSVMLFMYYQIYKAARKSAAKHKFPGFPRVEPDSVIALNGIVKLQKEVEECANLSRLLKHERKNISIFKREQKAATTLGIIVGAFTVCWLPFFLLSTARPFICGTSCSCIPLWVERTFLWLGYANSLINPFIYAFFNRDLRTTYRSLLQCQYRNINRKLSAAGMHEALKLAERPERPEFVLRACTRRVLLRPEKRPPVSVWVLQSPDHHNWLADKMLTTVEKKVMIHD

For the molecule `COc1cc2c(cc1OC)CN(/C=N/c1ccc3c(c1)C(O)CC3)CC2` (stereo not shown) [Compound 32], the “Line Crossings (mean ± S.E.)” value in assay [1] (dose 1 mg/kg, i.p.) turned out to be 98.8 ± 7.3; in assay [1] (dose 3 mg/kg, i.p.), 89.6 ± 13.3; in assay [1] (dose 10 mg/kg, i.p.) it was 45.6 ± 8.3. For the same molecule, the “effect on amphetamine-induced hyperactivity” value in assay [1] (rats, i.p., 30 min before amphetamine) is on record as “suppressed the hyperactivity in a dose-dependent manner”. In assay [1] (rats, amphetamine 1.0 mg/kg i.p., 95% confidence limits, estimated), the “ED50, suppression of amphetamine-induced hyperactivity” value is on record as 8.1 (95% confidence limits; 4.4-15) mg/kg, i.p. Besides, the Ki on human 5-HT7 receptors is 400 nM; in assay [3] it was 320 nM; on human D2 membrane it was more than 300000 nM. Besides, in assay [2], the “reduction of c-AMP levels (agonist activity)” value was “able to reduce cAMP levels”.

Consider `OC1CCc2ccc(/N=C/N3CCc4ccccc4C3)cc21` (stereo not shown) [Compound 34, 6-[(3,4-dihydro-1H-isoquinolin-2-ylmethylene)-amino]-indan-1-ol], for which the figures for the Ki (on human 5-HT7 receptors; in assay [3]; on human D2 membrane) were 2700 nM, 2800 nM and more than 300000 nM, respectively.

Regarding `CCCSc1nsnc1[C@H]1CN2CCC[C@H]1C2` [PTAC, (5R,6R)6-(3-propylthio-1,2,5-thiadiazol-4-yl)-1-azabicyclo(3.2.1)octane], the “effect on apomorphine-induced disruption of PPI” value in assay [4] is listed as “Neither PTAC nor SB25871 alone affect the disruption induced by apomorphine”.

In the case of `Cc1cccc(S(=O)(=O)N2CCC[C@@H]2CCN2CCC(C)CC2)c1` [SB258741, R-(+)-1-(toluene-3-sulfonyl)-2-[2-(4-methylpiperidin-1-yl)ethyl]pyrrolidine], the “effect on apomorphine-induced disruption of PPI” value in assay [4] is “Neither PTAC nor SB25871 alone affect the disruption induced by apomorphine”.

`CN1[C@@H]2CC[C@H]1C[C@@H](OC(=O)C(CO)c1ccccc1)C2` (stereo partly shown) [atropine]: the “blockade of the cAMP-reducing effect of Compound 32” value in assay [2] is listed as “the effect was blocked”.

Regarding `O=C(CCCN1CCC(O)(c2ccc(Cl)cc2)CC1)c1ccc(F)cc1` [haloperidol], the “effect on PCP-induced hypofunction” value is reported as “reversed the PCP-induced hypofunction” with chronic PCP-treated rats [5] (auditory structures, reported previously (Cochran et al., 2003)) and “failed to reverse” in the assay on chronic PCP-treated rats [5] (reticular nucleus of the thalamus, shown previously (Cochran et al., 2003)). The “effect on PCP-induced metabolic hypofunction” value with chronic PCP-treated rats [5] (prelimbic region of the prefrontal cortex, shown previously (Cochran et al., 2003)) was “failed to reverse”. Also, the “effect on PCP-induced metabolic hypofunction (LCGU)” value with chronic PCP-treated rats [6] (prelimbic region of the prefrontal cortex, chronic treatment) was “not by haloperidol or clozapine”. The “effect on PCP-reduced local glucose utilisation” value in the assay on chronic PCP-treated rats [6] (ventral lateral lemniscus, chronic treatment (FIG. 4)) is “only partially restores the hypofunction”; in the assay with chronic PCP-treated rats [6] (ventral reticular thalamic nucleus, chronic treatment (FIG. 3)), “not by haloperidol or clozapine”.

`O=C1CCCN1CC#CCN1CCCC1` [oxotremorine]: the “reduction of c-AMP levels (agonist activity)” value in assay [2] was “showed the ability to reduce c-AMP levels”.

Source of the values: patent publication US20060199978A1, “Compounds having serotonin 5-ht17 receptor antagonist activity and muscarinic m4 receptor agonist activity and their use in the treatment of psychotic disorders” (priority 2003, published 2006).
